Reference: ChEMBL document CHEMBL1152224, “Small, non-peptide C5a receptor antagonists: part 1” (Bioorg Med Chem Lett, 2008)

Assays:
in vitro = details: human, liver microsomes
[1] = Clearance in rat at 0.5 mg/kg, iv and 10 mg/kg, po; format: ADME, organism-based; details: in vivo
physchem = details: octanol/water, pH 7.4
[2] = Volume of distribution in rat at 0.5 mg/kg, iv and 10 mg/kg, po; format: ADME, organism-based; details: in vivo
[3] = Half life in rat at 0.5 mg/kg, iv and 10 mg/kg, po; format: ADME, organism-based; details: in vivo
[4] = Oral bioavailability in rat at 10 mg/kg, po; format: ADME, organism-based; details: in vivo
[5] = Half life in dog at 0.5 mg/kg, iv; format: ADME, organism-based, Canis lupus familiaris; design: dose 0.5 mg/kg, route intravenous; details: in vivo
[6] = Volume of distribution in dog at 0.5 mg/kg, iv; format: ADME, organism-based, Canis lupus familiaris; design: dose 0.5 mg/kg, route intravenous; details: in vivo
[7] = Clearance in dog at 0.5 mg/kg, iv; format: ADME, organism-based, Canis lupus familiaris; design: dose 0.5 mg/kg, route intravenous; details: in vivo
[8] = Lipophilicity, log P of the compound; format: physicochemical; details: octanol/water

| half-life (in vitro) | clearance [1] | logD (physchem) | Vd [2] | half-life [3] | bioavailability [4] | half-life [5] | Vd [6] | clearance [7] | logP [8] | Structure (SMILES) |
| --- | --- | --- | --- | --- | --- | --- | --- | --- | --- | --- |
| 14 min | 67 mL/min/kg | 4.9 | 3 L/kg | 30 min | 0.5% |  |  |  |  | O=C(c1csc2ccccc12)N(CCc1ccc(Cl)cc1)[C@H]1CC[C@H](O)CC1 |
| 20 min |  | > 5 |  |  |  | 84 min | 3.5 L/kg | 29 mL/min/kg |  | O=C(c1cccc2ccccc12)N(CCc1ccc(Cl)cc1)[C@H]1CC[C@H](O)CC1 |
| 11 min |  |  |  |  |  |  |  |  | > 5 | O=C(Nc1ccc(F)cc1F)N1CCC(N(CCc2ccc(Cl)cc2)C(=O)c2csc3ccccc23)CC1 |

| Structure (SMILES) | half-life (in vitro) | clearance [1] | logD (physchem) | Vd [2] | half-life [3] | bioavailability [4] | half-life [5] | Vd [6] | clearance [7] | logP [8] |
| --- | --- | --- | --- | --- | --- | --- | --- | --- | --- | --- |
| O=C(c1csc2ccccc12)N(CCc1ccc(Cl)cc1)C1CCN(CCc2ccc(F)cc2F)CC1 |  |  | 4.1 |  |  |  |  |  |  |  |
